Laboratory results reported in patent US20230107216A1, “PANTETHEINE DERIVATIVES AND USES THEREOF” (Comet Therapeutics, Inc., priority 2018, published 2023).
Where two headings read alike, the source gives them in different places.

What was measured:
[1] = test system: Venular Endothelial cells (HUVEC) (4H system); test: BioMAP 4H system (IL-4 and histamine); type: cell-based, human; conditions: procedure of Example 826; for % decrease in Eotaxin-3: 1 uM
[2] = test system: Peripheral blood mononuclear cells co-cultured with venular endothelial cells (HUVEC) (LPS system); test: BioMAP LPS system; type: cell-based, human; conditions: Homo sapiens, HUVEC, 24 h, 10 uM, procedure of Example 827
[3] = test system: Methylmalonic Acidemia (MMA) primary fibroblasts Tsi 5224; test: Mitochondrial respiration, XFe96 Extracellular Flux Analyzer (OCR/ECAR), MMA fibroblasts Tsi 5224; type: cell-based; conditions: Homo sapiens, Fibroblast, read-out: Increase in Maximal Respiratory Capacity AUC;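 further: relative to vehicle DMSO control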
Procedure: The effect of the compounds of the present disclosure on mitochondrial respiration was measured with a XFe96 Extracellular Flux Analyzer (Seahorse Bioscience, Agilent Technologies) and Oxygen consumption Rate (OCR) and Extracellular acidification rate (ECAR) determined.
Cell culture and treatments. Primary adherent fibroblasts were cultured in minimum essential medium (MEM) (Gibco, 25030081) supplemented with 2 mM L-Glutamine (Gibco, 25030081), 15% fetal bovine serum (FBS) (Gibco, 26400044) and 1% penicillin/streptomycin (Gibco, 5140122) at 37° C. and 5% CO2. Cells were collected for either passaging or experiment at ˜70-80% confluence. Cells were obtained by trypsinization and seeded at 20000 cells/well in cell culture microplates (Seahorse Bioscience, 101085-004) and allowed to adhere for 16 hours in culture media.
By profiling different primary cells and/or optimizing their culture media or environmental components one can select cell lines and/or conditions that are appropriate for the biological or disease model. In the present example, 24 hours prior to OCR and ECAR profiling, media was changed to Dulbecco's Modified Eagle Medium (DMEM, Agilent Seahorse 103575-100) with the appropriate supplements for the different primary cells (10 mM glucose, 2 mM L-glutamine, 1 mM pyruvate, 10% FBS; 1 mM glucose, 2 mM L-glutamine, 1 mM pyruvate, 10% FBS; 10 mM glucose, 10% FBS; 5 mM glucose 10% FBS; 1 mM glucose 10% FBS). Cells used in this example were: Propionic Acidemia (PA) (GM00371, GM03590 Coriell Institute for Medical Research, Tsi 6337, Tsi 4626, Tsi 3618 Trans-Hit Bio), Methylmalonic Acidemia (MMA) (GM01673, Coriell Institute for Medical Research, Tsi 5224 Trans-Hit Bio), Branched chain ketoacid dehydrogenase kinase (BCKDK) (GM00612, GM00649 Coriell Institute for Medical Research), Subnormal activation of pyruvate dehydrogenase complex (PDH) (GM01503 Coriell Institute for Medical Research), Very long-chain acyl-CoA dehydrogenase (VLCAD) (GM17475), Leigh Syndrome (LS) (GM03672, GM13411 Coriell Institute for Medical Research), Pyruvate Carboxylase Deficiency (PC) (GM00444 Coriell Institute for Medical Research), Glutaric Acidemia-I (GA) (GM10653), Friedreich's Ataxia (FXN) (GM04078 Coriell Institute for Medical Research, Huntington's disease (HD) (GM21756 Coriell Institute for Medical Research), Ornithine Transcarbamylase Deficiency (OTC) (GM12756 Coriell Institute for Medical Research), Kearns-Sayre Syndrome (KSS) (GM06225 Coriell Institute for Medical Research).
One hour before the assay, the cells were washed with freshly prepared unbuffered serum free-Seahorse XF Assay medium (Seahorse Bioscience, North America, USA, 103575-100) with the same supplements as for the previous 24 hour incubation.
After baseline measurements of OCR, cells were challenged with compounds of the present disclosure at different concentrations (10 to 50 μM) or vehicle (DMSO, 0.1%) and a post-compound baseline was recorded. OCR was measured after sequentially adding to each well 1 μg/ml oligomycin (inhibitor of ATP synthase Sigma-Aldrich, 753531), then maximal OCR was determined with carbonyl cyanide 4-(trifluoromethoxy) phenylhydrazone (FCCP, Sigma-Aldrich, C2920), (uncoupler of oxidative phosphorylation) and 0.5 μM of rotenone (Sigma-Aldrich, R8875) plus antimycin A (Sigma-Aldrich, A8674) (inhibitors of mitochondrial complex I and III) for determination of rotenone-antimycin insensitive respiration together with Hoechst for nuclear staining in situ when normalized to cell counts. After the analysis and nuclear staining, the XFp microplate was transferred to the Cytation 5, and the nuclear images were captured, the individual nuclei were identified and counted by BioTek Gen5 software. Data were expressed as pmol of O2 per minute and normalized by nuclear staining and baselined to pre-compound addition.
Assay conditions were as stated below.
Assay specifics on assay conditions are indicated below when readouts were normalized to cell counts. […]

[4] = test system: monocyte-derived M1 macrophages; test: M1 differentiation assay (macrophage TNFα, IL6, IL10 ELISA, FACS); type: cell-based, human; conditions: Homo sapiens, Macrophage
Procedure: Monocytes were isolated by positive isolation with CD14+ microbeads (Miltenyi, 130-050-201). Monocytes were 99% viable and were 96% purity as analyzed by FACS and CD14+ (BD, 563561). 100,000 monocytes along with compounds at the dose of 10 and 50 μM were allowed to differentiate to macrophages with 10 ng/ml GMCSF (R&D, 15-GM-050/CF) in RPMI complete media (Invitrogen, 22400089) with 15% FBS (Hyclone SV30087.03) and 1% Penicillin-Streptomycin (Gibco, 15140-122). On day 2 and 4 half the media was refreshed with fresh GM-CSF and compounds at 10 and 50 μM dose. On day 6 the macrophages were matured with GMCSF, IFNγ (R&D 285-IF-100/CF) and LPS (Sigma, L6143) in the presence of 10 μM and 50 μM of compounds. After 24h, supernatant was collected for the measurement of TNFα (DKW, 1117202) IL6 (DKW, 1110602), IL10 (DKW, 1110003) by ELISA. Macrophages were detached gently on ice with EDTA (Invitrogen, 15575-038) and analyzed by FACS (BD LSR Fortessa, 853492). Cells were stained for live/dead dye, surface and intracellular markers with fixation/permeabilization solution (BD, 554714) and ALIVE/DEAD™ Fixable Near-IR Dead Cell Stain Kit (BD, L34976), mouse anti human CD86 APC (BD, 555660), mouse anti-human CD163 PE (BD, 556018), mouse anti-human CD68 FITC (BD, 562117) or isotype controls anti-mouse IgG1 κ PE (BD, 559320) and anti-mouse IgG1 κ APC (BD, Anti mouse IgG1 κ APC (BD, 55571). Mature M1 macrophages were defined as CD86+CD68+CD163− and increase in TNFα, IL6, and decrease in IL-10.

[5] = test system: HepG2 cells; test: Mitochondrial membrane potential (MITO-ID MP detection Kit); type: cell-based; conditions: Homo sapiens, 168 h, 7 days
Procedure: HepG2 cells (ATCC, HB-8065) were cultured (5% CO2 at 37° C.) and plated in Poly-D-Lysine 384-Well plate (Corning, 356663) at a density of 160000 cells/mL in 50 μL/well. Culture and assay media consisted of DMEM (Gibco, 11995-065) supplemented with 1% Penicillin-Streptomycin and 10% FBS (Hyclone, SV30087.03).
MITO-ID® MP detection Kit (ENZ-51018) was used and manufacturer instructions followed. Cells were allowed to settle for 30 min at room temperature and further incubated overnight (37° C. and 5% CO2) for adherence. Next day, test compounds (50-10 μM) and vehicle DMSO (0.2%) were added at the recommended volumes to the 384-well plate for 7 days without media change using a Tecan compound dispenser. All the solutions and wash buffers were prepared and dispensed according to manufacturer's volumes for a 384-well plate format.

[6] = test system: primary fibroblasts (healthy controls and PA, MMA, BCKDK, PDH, VLCAD, LS, PC, GA, VLCFA, KSS, FXN, HD); test: Measurement of ROS (H2DCFDA) in primary fibroblasts; type: cell-based, human; conditions: Homo sapiens, procedure Example 812
Procedure: Primary adherent fibroblasts were cultured in minimum essential medium (MEM) (Gibco, 25030081) supplemented with 2 mM L-Glutamine (Gibco, 25030081), 15% fetal bovine serum (FBS) (Gibco, 26400044) and 1% penicillin/streptomycin (Gibco, 5140122) at 37° C. and 5% CO2. Cells were collected for either passaging or experiment at ˜70-80% confluence. Cells were obtained by trypsinization and seeded in cell culture microplates either white plate (Thermo Fisher Scientific, 152028) for luminescent measurement or black plate (Thermo Fisher Scientific, 165305) for fluorescent based read out for different assays listed below. Cells were obtained by trypsinization and […] were seeded and allowed to adhere for 16-18 hours to have confluency around 70-80% in the cell well with culture media. After 24 hours prior to measurements (37° C., 5% CO2) media was changed to Dulbecco's Modified Eagle Medium (DMEM, Agilent Seahorse cat #103575-100) with the appropriate supplements as stated below.
Primary fibroblasts assayed were Healthy controls (GM00041, GM05659, GM23974 Coriell Institute for Medical Research), Propionic Acidemia (PA) (GM00371, GM03590 Coriell Institute for Medical Research, Tsi 6337 Trans-Hit Bio), Methylmalonic Acidemia (MMA) (GM01673, Coriell Institute for Medical Research, Tsi 5224, Tsi 4290 Trans-Hit Bio), Branched chain ketoacid dehydrogenase kinase (BCKDK) (GM00612, GM00649 Coriell Institute for Medical Research), Subnormal activation of pyruvate dehydrogenase complex (PDH) (GM01503 Coriell Institute for Medical Research), Very long-chain acyl-CoA dehydrogenase (VLCAD) (GM17475), Leigh Syndrome (LS) (GM03672, GM13411 Coriell Institute for Medical Research), Pyruvate Carboxylase Deficiency (PC) (GM00444 Coriell Institute for Medical Research), Glutaric Acidemia-I (GA), Impaired VLCFA oxidation (VLCFA) (GM13262), Kearns-Sayre Syndrome (KSS) (GM06225 Coriell Institute for Medical Research), Friedreich's Ataxia (FXN), Huntington's disease (HD) (GM21756 Coriell Institute for Medical Research). Next, cells were treated with compounds (10 μM) and ROS H2DCFDA (22 μM) dye for 2 hours in PA, MMA lines and for 24h for the other fibroblast lines. Kinetic read was started immediately with a i3x plate reader (492/527 nm) for 60 minutes.
A total dead cell count was performed as described in Example 817 and only alive cells were used for analysis.

[7] = MMA Tsi 5224, assay condition A (10 mM glucose, 2 mM L-glutamine, 1 mM pyruvate, 10% FBS)
[8] = Fibroblast, BCKD GM00612, Assay Condition A, read-out: Decreased ROS by at least 10%

With `CC(C)(CO)[C@@H](O)C(=O)NCCC(=O)NCCS` [Prep Ex 5] the inhibition at 10 µM ([1]; Homo sapiens, HUVEC, 24 h, 10 uM, read-out: % decrease in E-Selectin) was no less than 20%, the inhibition at 10 µM ([2]; read-out: % decrease in IL-1α) was no less than 20% and the inhibition at 10 µM ([2]; read-out: % decrease in IL-8) was no less than 10%. For the same compound, the inhibition at 10 µM ([2]; read-out: % decrease in TissueFactor) was no less than 10% and the activation at 10 µM ([2]; read-out: % increase in sTNFα) was no less than 20%.
Compound `CC1(C)OC(=O)C(CC(=O)SCCNC(=O)CCNC(=O)[C@H](O)C(C)(C)CO)O1` (stereo partly drawn) [Compound 1238, S-(2-(3-((R)-2,4-dihydroxy-3,3-dimethylbutanamido)propanamido)ethyl) 2-(2,2-dimethyl-5-oxo-1,3-dioxolan-4-yl)ethanethioate] has an activation at 10 µM [3, 7] of no less than 10%, an inhibition at 10 µM ([4]; 10 uM, read-out: % decrease in Macrophage TNFα Secretion) of no less than 30% and an activation at 50 µM ([5]; 50 uM, read-out: % increase in Mitochondrial Membrane Potential) of 20%.
For `CCC(=O)C(C)C(=O)SCCNC(=O)CCNC(=O)[C@H](O)C(C)(C)CO` (stereo partly drawn) [Compound 1251, S-(2-(3-((R)-2,4-dihydroxy-3,3-dimethylbutanamido)propanamido)ethyl) 2-methyl-3-oxopentanethioate], the inhibition at 10 µM [6, 8] was no less than 10%, the inhibition at 10 µM ([6]; Fibroblast, VLCFA GM13262, Assay Condition C, read-out: Decreased ROS by at least 30%) was no less than 30% and the inhibition at 10 µM ([6]; FXN GM04078, Assay Condition C, read-out: Decreased ROS by at least 10%) was no less than 10%. It also gave an inhibition at 10 µM ([6]; FXN GM04078, Assay Condition C, read-out: Decreased ROS by at least 30%) of no less than 30%, an inhibition at 50 µM ([4]; read-out: % decrease in Macrophage IL-6 Secretion) of no less than 30% and an inhibition at 50 µM ([4]; read-out: % decrease in Macrophage TNFα Secretion) of no less than 30%. It also gave an inhibition at 50 µM ([5]; 50 uM, read-out: % decrease in Mitochondrial Membrane Potential) greater than 30%.
`COC(=O)C[C@H](N)C(=O)SCCNC(=O)CCNC(=O)[C@H](O)C(C)(C)CO` [Compound 451] was tested, and the “% decrease in Eotaxin-3” value [1] was no less than 10%.
For `C/C=C/C(=O)CC(=O)SCCNC(=O)CCNC(=O)[C@H](O)C(C)(C)CO` [Compound 36, (2R)-2,4-dihydroxy-3,3-dimethyl-N-[2-[(2-[[(4E)-3-oxohex-4-enoyl]sulfanyl]ethyl)carbamoyl]ethyl]butanamide], the “% decrease in Eotaxin-3” value [1] was no less than 10% and the activation at 10 µM [3, 7] was no less than 10%.
For `CC(=O)NCCCC(=O)OCC(C)(C)[C@@H](O)C(=O)NCCC(=O)NCCSC(=O)CC(=O)NCCc1c[nH]cn1` [Compound 633], the “% decrease in Eotaxin-3” value [1] was no less than 10%.
Work on `CC(C)(CO)[C@@H](O)C(=O)NCCC(=O)NCCSC(=O)C(O)CO` (stereo partly shown) [Compound 399] yielded an activation at 10 µM ([3]; MMA Tsi 5224, assay condition D (1 mM glucose, 10% FBS)) of no less than 10%, an inhibition at 10 µM [6, 8] of no less than 10% and an inhibition at 10 µM ([5]; 10 uM, read-out: % decrease in Mitochondrial Membrane Potential) greater than 30%.
